# Experimental data: ChEMBL document CHEMBL5604062, “ASAP - ZIKV NS2B-NS3 protease fluorescence dose response” (2024)
# Values joined by “and” are separate entries in the source; they are usually repeats but may differ in a detail not shown here. Equal entries are not always repeated.
# Target: Nonstructural protein 3 (Zika virus, UniProt A0A024AXB9)
# Experiment: Functional biochemical assay to identify treatments for viral infectious disease that targets Zika NS2B-NS3 protease. Utilizing a direct enzyme activity measurement method, reading the fluorescence intensity is used to characterize the relative potency of inhibitors as IC50.
# Set-up: species or system PRVABC59
# Chain of Nonstructural protein 3 (A0A024AXB9 whole entry): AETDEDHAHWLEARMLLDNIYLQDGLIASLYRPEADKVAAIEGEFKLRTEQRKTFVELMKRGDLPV
row,SMILES,IC50
1,O=C(Nc1cc(Cl)cc(C(=O)NCCc2nnn[nH]2)c1)OCc1ccccc1,> 99.5 µM
2,Cc1c(C(=O)Nc2cccc(-n3nn[nH]c3=O)c2)cc(C2CC2)n1C,> 99.5 µM
3,N#Cc1ccc(CN)cc1NC(=O)c1cc(Cl)cc(NC(=O)OCc2ccccc2)c1,18.7 µM
4,O=C(Nc1cccc(-c2nnn[nH]2)c1)c1cc(Cl)cc2[nH]ncc12,> 99.5 µM
5,CCn1c(=O)c(N2CC[C@H](CO)C2)nc2ccc(C(=O)NS(C)(=O)=O)cc21,> 99.5 µM
6,COCc1cc(Cl)cc(S(=O)(=O)Nc2cccc(-c3nnn[nH]3)c2)c1,> 99.5 µM
7,CC[C@H](Cc1nnn[nH]1)c1ccc(NC(=O)c2cc(Cl)cc(-n3cccc3)c2)cc1,52.9 µM
8,N#Cc1cc(Cl)cc(S(=O)(=O)Nc2cccc(-c3nnn[nH]3)c2)c1,> 99.5 µM
9,Cc1c(C(=O)Nc2cccc(CCN)c2)cc(C2CC2)n1C,88.3 µM
10,CC(C)[C@@H]1C(=O)O[C@H]1C(=O)O,> 99.5 µM
11,O=C(Nc1cc(Cl)cc(C(=O)Nc2cccc(-c3cn[nH]n3)c2)c1)OCc1ccccc1,> 99.5 µM
12,CC[C@H](Cc1nnn[nH]1)c1ccc(NC(=O)c2cc(Cl)cc3[nH]ncc23)cc1,> 99.5 µM
13,Nc1cccc(NC(=O)c2cc(Cl)cc(NC(=O)OCc3ccccc3)c2)c1,> 99.5 µM
14,CCc1nc(C(=O)Nc2cccc(CN)c2)nn1-c1c(Cl)cccc1Cl,> 99.5 µM
15,N#Cc1cc(Cl)cc(C(=O)Nc2cccc(-n3nn[nH]c3=O)c2)c1,> 99.5 µM
16,COC(=O)c1cc(Cl)cc([C@@H]2CN(Cc3ccccc3)C[C@H]2c2cccc(CN)c2)c1,47.5 µM
17,Cn1nnnc1-c1cccc(NC(=O)c2cc(Cl)cc(NC(=O)OCc3ccccc3)c2)c1,> 99.5 µM
18,Nc1nc2ccc(NC(=O)c3cc(Cl)cc(NC(=O)OCc4ccccc4)c3)cc2[nH]1,> 99.5 µM
19,CNC(=O)[C@H](Nc1cccc(N)n1)c1cc(Cl)cc(CNC(=O)OC(C)(C)C)c1,> 99.5 µM
20,C=CC[C@H](Nc1cc(Cl)cc(NC(=O)OCc2ccccc2)c1)c1cccc(-c2nn[nH]n2)c1,13.5 µM and 9.86 µM and 11 µM
21,CCNC(=O)Nc1cc(Cl)cc(C(=O)Nc2ccc3c(c2)CNCCO3)c1,0.749 µM
22,CC[C@H](Cc1nn[nH]n1)c1ccc(N[C@H](C(=O)NC)c2cc(Cl)cc(NC(=O)OCc3ccccc3)c2)cc1,79.1 µM
23,O=C(Nc1cc(Cl)cc(C(=O)NCCCc2nnn[nH]2)c1)OCc1ccccc1,> 99.5 µM
24,C=CC[C@H](Nc1cccc(CN)n1)c1cc(Cl)cc(NC(=O)OCc2ccccc2)c1,25.3 µM
25,O=C(Nc1cc(Cl)cc(C(=O)Nc2ccc(-n3nn[nH]c3=O)cc2)c1)OCc1ccccc1,30.9 µM

row,SMILES,IC50
1,CC(C)[C@H](NC(=O)c1cc(Cl)cc(NC(=O)OCc2ccccc2)c1)c1nn[nH]n1,> 99.5 µM
2,CC[C@H](Cc1nnn[nH]1)c1ccc(NC(=O)c2cc(Cl)cc(C#N)c2)cc1,> 99.5 µM
3,Cc1cc(CN)cc(NC(=O)c2cc(C3CC3)n(C)c2C)c1,> 99.5 µM
4,Cc1c(C(=O)Nc2cc(F)cc(CN)c2)cc(C2CC2)n1C,89.9 µM
5,N#Cc1cc(Cl)cc(C(=O)Nc2cccc(-c3nnn[nH]3)c2)c1,> 99.5 µM
6,CNC(=O)[C@H](Nc1cccc(CN)c1)c1cc(Cl)cc(NC(=O)OCc2ccccc2)c1,0.612 µM
7,CC[C@H](Cc1nnn[nH]1)c1ccc(NC(=O)[C@H]2[C@H]3CCCCC[C@H]3[C@H]2NC(=O)OCc2ccccc2)cc1,52.4 µM
8,O=C(Nc1cccc(-c2nnn[nH]2)c1)c1cc(Cl)cc(C2CC2)c1,> 99.5 µM
9,CCNC(=O)Nc1cc(Cl)cc(C(=O)Nc2cccc(-c3nn[nH]n3)c2)c1,> 99.5 µM
10,CCc1cc(C(=O)Nc2cccc(-n3nn[nH]c3=O)c2)sc1-c1ccc(Cl)cc1,24.7 µM
11,COC(=O)c1cc(CN)cc([C@@H]2C[C@H]2c2cc(Cl)cc(NC(=O)OCc3ccccc3)c2)c1,31.7 µM
12,O=C(Nc1cc(Cl)cc(C(=O)N[C@]2(c3nnn[nH]3)CCOC2)c1)OCc1ccccc1,> 99.5 µM
13,NCc1ccc([C@H]2C[C@@H]2c2cc(Cl)cc(NC(=O)OCc3ccccc3)c2)cc1,5.12 µM
14,CCNC(=O)Nc1cc(Cl)cc(C(=O)Nc2cccc(-n3nn[nH]c3=O)c2)c1,> 99.5 µM
15,NCc1cc(Cl)cc(C(=O)Nc2cccc(-c3nn[nH]n3)c2)c1,> 99.5 µM
16,O=C(Nc1cc(Cl)cc(/C=C/c2cccc(-n3nn[nH]c3=O)c2)c1)OCc1ccccc1,> 99.5 µM
17,Cn1nc(C(=O)Nc2cccc(CN)c2)c2c1CCS(=O)(=O)C2,> 99.5 µM
18,O=S(=O)(Nc1cccc(-c2nnn[nH]2)c1)c1cc(F)cc(Cl)c1,> 99.5 µM
19,CCOC(=O)c1[nH]c(C)c(C(=O)Nc2cccc(CN)c2)c1CC,> 99.5 µM
20,CC[C@H](Cc1nnn[nH]1)c1ccc(NC(=O)c2cc(Cl)cc(C3CC3)c2)cc1,> 99.5 µM
21,N[C@H]1CCc2cc(NC(=O)c3cc(Cl)cc(NC(=O)OCc4ccccc4)c3)ccc21,5.75 µM
22,O=C(N[C@H]1[C@H]2CCCCC[C@H]2[C@H]1C(=O)Nc1cccc(-n2nn[nH]c2=O)c1)OCc1ccccc1,63 µM
23,NCc1ccc2c(c1)[C@H](N1CCCC1=O)C[C@H](c1cc(Cl)cc(NC(=O)OCc3ccccc3)c1)N2,26.8 µM
24,CCNC(=O)Nc1cc(Cl)cc(C(=O)O)c1,> 99.5 µM

# The next lines start with the values.
row,IC50,SMILES
1,17.7 µM,NCc1cccc(N[C@H](C#CCO)c2cc(Cl)cc(NC(=O)OCc3ccccc3)c2)c1
2,> 99.5 µM,O=C(Nc1cc(Cl)cc(C(=O)Nc2ccc3c(c2)C[C@H](F)C3)c1)OCc1ccccc1
3,> 99.5 µM,COc1c(C(=O)N(C)C)cc(Cl)cc1S(=O)(=O)Nc1cccc(-c2nnn[nH]2)c1
4,91.1 µM,Cc1nc(-c2ccc(Cl)cc2)sc1C(=O)Nc1cccc(CN)c1
5,> 99.5 µM,CC[C@H](Cc1nnn[nH]1)c1ccc(NC(=O)c2cc(Cl)cc(SC)c2)cc1
6,> 99.5 µM,Cc1c(C(=O)Nc2cccc([C@H]3CCNC3)c2)cc(C2CC2)n1C
7,6.91 µM,NCc1ccc2c(c1)[C@H]1OCCC[C@H]1[C@H](c1cc(Cl)cc(NC(=O)OCc3ccccc3)c1)N2
8,> 99.5 µM,O=S(=O)(Nc1cccc(-c2nnn[nH]2)c1)c1cc(Cl)cc(-c2ccccc2)c1
9,> 99.5 µM,Cc1ccc(NC(=O)c2cc(C3CC3)n(C)c2C)cc1CN
10,> 99.5 µM,CC(C)c1nc2c(C(=O)Nc3cccc(-c4nnn[nH]4)c3)cccc2[nH]1
11,> 99.5 µM,O=S(=O)(Nc1cccc(-c2nnn[nH]2)c1)c1cc(Cl)cc2c1OCC2
12,> 99.5 µM,O=C1Cc2cc(NC(=O)c3cc(Cl)cc(NC(=O)OCc4ccccc4)c3)ccc2N1
13,0.676 µM,CCNC(=O)Nc1cc(Cl)cc(C(=O)Nc2cc(C)cc(CN)c2)c1
14,> 99.5 µM,CSc1cc(Cl)cc(C(=O)Nc2cccc(-n3nn[nH]c3=O)c2)c1
15,> 99.5 µM,CCNC(=O)Nc1cc(Cl)cc(C(=O)Nc2ccc([C@H](CC)Cc3nnn[nH]3)cc2)c1
16,7.24 µM,O=C(Nc1cc(Cl)cc(C(=O)Nc2cc(Br)cc(-c3nnn[nH]3)c2)c1)OCc1ccccc1
17,> 99.5 µM,Nc1cccc(NC(=O)c2cc(Cl)cc(NC(=O)OCc3ccccc3)c2)n1
18,9.61 µM,COC(=O)c1cc(NC(=O)c2cc(Cl)cc(NC(=O)OCc3ccccc3)c2)cc(-c2nnn[nH]2)c1
19,10.7 µM,N#Cc1cc(CN)cc(NC(=O)c2cc(Cl)cc(NC(=O)OCc3ccccc3)c2)c1
20,> 99.5 µM,O=S(=O)(Nc1cccc(-c2nnn[nH]2)c1)c1cc(Cl)cc(C(F)(F)F)c1
21,19.9 µM,CCNC(=O)Nc1cc(Cl)cc(C(=O)Nc2cccc(C3CCNCC3)c2)c1
22,> 99.5 µM,O=C(Nc1cc(Cl)cc(C(=O)NC2(c3nn[nH]n3)CCCC2)c1)OCc1ccccc1
23,> 99.5 µM,Cc1c(C(=O)Nc2cccc([C@@H](C)N)c2)cc(C2CC2)n1C
24,> 99.5 µM,Cn1cc(C(=O)Nc2cccc(CN)c2)c(-c2cnccn2)n1
25,22.8 µM,O=C(Nc1cc(Cl)cc([C@H]2C[C@@H]2c2ccc3c(c2)CNC3)c1)OCc1ccccc1
26,7.72 µM,N[C@H]1CCN(c2ccc(NC(=O)c3cc(Cl)cc(NC(=O)OCc4ccccc4)c3)cc2)C1

row,IC50,SMILES
1,> 99.5 µM,O=C(Nc1cccc(-n2nn[nH]c2=O)c1)c1cc(Cl)cc2c1CCC2
2,7.51 µM,O=C(Nc1cc(Cl)cc(C(=O)Nc2ccc([C@H]3CCCNC3)cc2)c1)OCc1ccccc1
3,6.17 µM,CCNC(=O)Nc1cc(Cl)cc(C(=O)Nc2cc(CCCN)ccc2F)c1
4,7.28 µM,NC1CCN(c2ccc(NC(=O)c3cc(Cl)cc(NC(=O)OCc4ccccc4)c3)cc2)CC1
5,39.9 µM,Cc1c(C(=O)Nc2cc(CCCN)ccn2)cc(C2CC2)n1C
6,58.7 µM,Cc1ccc(-c2nnn[nH]2)cc1NC(=O)c1cc(Cl)cc(NC(=O)OCc2ccccc2)c1
7,5.86 µM,Cc1cc(C(=O)Nc2cccc(CN)c2)c(NC(=O)[C@H]2CCCO2)s1
8,7.07 µM,NCc1cccc(NC(=O)c2cc(Br)cc(-n3cnnn3)c2)c1
9,> 99.5 µM,O=C(Nc1cc(Cl)cc(C(=O)N[C@H](c2nn[nH]n2)C2CNC2)c1)OCc1ccccc1
10,> 99.5 µM,COc1cc(C(=O)Nc2cccc(CN)c2)cc2cn(C)nc12
11,> 99.5 µM,Cc1oc(C(=O)Nc2cccc(CN)c2)cc1COc1ccccc1
12,> 99.5 µM,O=C(Nc1cc(Cl)cc(S(=O)(=O)Nc2cccc(-n3nn[nH]c3=O)c2)c1)OCc1ccccc1
13,> 99.5 µM,O=C(Nc1cccc(-n2nn[nH]c2=O)c1)c1cc(Cl)cc(N2CCCC2=O)c1
14,6.31 µM,CNC(=O)[C@H](Nc1cc(Cl)cc(NC(=O)OCc2ccccc2)c1)c1cccc(CN)c1
15,> 99.5 µM,N#C[C@H](Nc1cccc(C(=O)O)c1)c1cc(Cl)cc2[nH]ncc12
16,> 99.5 µM,CC[C@H](Cc1nnn[nH]1)c1ccc(NC(=O)c2cc(Cl)cc3c2CCC3)cc1
17,> 99.5 µM,Cc1c(C(=O)Nc2ccc3c(c2)CNCCO3)cc(C2CC2)n1C
18,> 99.5 µM,O=C(Nc1cc(Cl)cc(C(=O)Nc2ccc3c(c2)C(=O)NC3)c1)OCc1ccccc1
19,11.8 µM and 16.7 µM,CCc1cc(C(=O)Nc2cccc(-c3nnn[nH]3)c2)sc1-c1ccc(Cl)cc1
20,> 99.5 µM,Cc1c(C(=O)Nc2cccc(C3CCNCC3)c2)cc(C2CC2)n1C
21,> 99.5 µM,CC(C)[C@H]1C(=O)O[C@@H]1C(=O)O
22,> 99.5 µM,O=C(Nc1cc(Cl)cc(C(=O)Nc2ccc3c(c2)CNC3=O)c1)OCc1ccccc1
23,> 99.5 µM,Cc1c(C(=O)Nc2n[nH]c3c2CNC3)cc(C2CC2)n1C
24,92.6 µM,Cc1c(C(=O)Nc2ccc(CCN)cc2)cc(C2CC2)n1C
25,> 99.5 µM,CC[C@H](Cc1nnn[nH]1)c1ccc(NC(=O)c2cc(Cl)cc(Cl)c2OC)cc1
